{
  "source": "paper doi:10.1101/2023.05.23.541938v1",
  "about": "“Exploring the Chain Release Mechanism from an Atypical Apicomplexan Polyketide Synthase” (biorxiv, 2023)",
  "key": {"[1]": {"molecular_target": "T1, TgTR (TgPKS2 thioester reductase domain) (Toxoplasma gondii, UniProt Z9O203Q0F3)", "T1 construct": "isolated C-terminal thioester reductase (TR) domain of TgPKS2; E. coli codon optimized, expressed in E. coli BL21(DE3) with GroES/EL-TF chaperones", "test": "isothermal titration calorimetry", "assay_type": "binding", "details": "25 mM Tris-HCl pH 7.6, 25 mM NaCl, N fixed at 1"}, "[2]": {"molecular_target": "T1, TgTR (TgPKS2 thioester reductase domain)", "test": "thermal shift assay (SYPRO orange)", "assay_type": "binding", "details": "1 mM compound, 3 µM TgTR, 10 mM Tris-HCl pH 8.0, 50 mM NaCl, 5% glycerol"}, "[3]": {"system": "TgTR (TgPKS2 thioester reductase domain)", "details": "saturating octanal (2.5 mM) and NADH; N147T in domain numbering"}},
  "data": [
    {"smiles": "NC(=O)C1=CN([C@@H]2O[C@H](COP(=O)(O)OP(=O)(O)OC[C@H]3O[C@@H](n4cnc5c(N)ncnc54)[C@H](O)[C@@H]3O)[C@@H](O)[C@H]2O)C=CC1", "note": "[NADH]", "values": [
      {"measurement": "Kd", "setting": "[1]; no other ligand", "result": "7.64 ± 0.59", "unit": "µM"},
      {"measurement": "Tm shift", "setting": "[2]", "result": "NADH, octanoyl-CoA, and octanal increased the TgTR Tm compared to the DMSO control"}
    ]},
    {"smiles": "CCCCCCCC=O", "note": "[octanal]", "values": [
      {"measurement": "Kd", "setting": "[1]; excess NADH (1 mM)", "result": "146 ± 31", "unit": "µM"},
      {"measurement": "Tm shift", "setting": "[2]", "result": "NADH, octanoyl-CoA, and octanal increased the TgTR Tm compared to the DMSO control"},
      {"measurement": "NADH fluorescence consumption assay, single-point relative rate", "setting": "[3]", "result": "no significant change was observed with octanal"}
    ]},
    {"smiles": "CCCCCCCC(=O)SCCNC(=O)CCNC(=O)[C@H](O)C(C)(C)COP(=O)(O)OP(=O)(O)OC[C@H]1O[C@@H](n2cnc3c(N)ncnc32)[C@H](O)[C@@H]1OP(=O)(O)O", "note": "[octanoyl-CoA]", "values": [
      {"measurement": "Kd", "setting": "[1]; excess NADH (1 mM)", "result": "89.6 ± 3.9", "unit": "µM"},
      {"measurement": "Tm shift", "setting": "[2]", "result": "NADH, octanoyl-CoA, and octanal increased the TgTR Tm compared to the DMSO control"}
    ]}
  ]
}
